Data on 2 compounds can be found in patent US12509421B2, “Preparation and application of deuterated 4-phenyl-4-piperidinols” (priority 2022, dated 2025).

Structures can show the parent of a compound that is named as a salt.

The target in one data set is T1, δOR (Homo sapiens, UniProt P41143).
T1 construct: expressed in transfected cells; host or cells: CHO cells
Briefly: Opioid receptor competitive binding test, δOR. The note with it: compound at 10 μM; [3H]-labeled ligand; CHO cell membranes; ± SD of three measurements. The essentials: (§1)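 Membranes came from CHO cells expressing each opioid receptor; 20-30 µg protein was incubated with 1-2 nM [3H]-ligand and compound for 30 min at 30°C in Tris-HCl pH 7.4. Nonspecific binding was defined with 1 µM corresponding ligand. Bound radioactivity was filtered and scintillation-counted, and IC50 was converted to Ki via Cheng-Prusoff.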

For another data set, the target named is T2, κOR (Homo sapiens, UniProt P41145).
T2 construct: expressed in transfected cells; host or cells: CHO cells
Briefly: Opioid receptor competitive binding test, κOR. Conditions: compound at 10 μM; [3H]-labeled ligand; CHO cell membranes; ± SD of three measurements. The essentials: as §1

The next data set relates to ICR mice. Briefly: Evaluation of side effects of constipation (defecation time, number, weight). The format is in vivo. Conditions: for Number of defecating animals: 10 mice per group; for Number of defecating animals / Fecal weight: within 5 hours; for Defecation time: first black stool; for Defecation time / water content of feces / Fecal weight: x ± SE; for Defecation time / water content of feces: only animals that defecate within 5 hours. The protocol:
Constipation side effect is a common side effect of opioid drugs. This patent evaluates the possibility of constipation side effect by the influence of the compound on defecation time, defecation quantity and defecation weight of experimental animals.
ICR mice are randomly divided into 6 groups with 10 mice in each group after adaptive feeding. Fasting for 16-24 h, without stopping drinking, the blank control group is given solvent, during which the normal diet is: (1) the blank control group; (2) Compound diphenoxylate (7.5 mg/kg) group; (3) Low dose (1 mg/kg) group; (4) High dose (5 mg/kg) group of the compound to be tested.
After administration for 30 minutes, the mice in each group are given Chinese ink by gavage. After administration, the mice are kept in a single cage, and the excretion time of the first black stool is recorded. The number and weight (wet weight) of defecation particles in each mouse within 5 hours after administration are recorded. each group of mice are placed in an IVC cage with clean filter paper. The feces of each mouse are collected, put into a sterile 1.5 ml EP tube and stored in an ice box. During the collection, the number of defecation particles of each mouse is recorded, and the wet weight is weighed. After the collected feces are dried, the dry weight of the feces is recorded. Drying conditions: put fresh feces in an oven and bake at 100° C. for 5-10 minutes until the dry weight of feces is constant. The following formula is used to calculate the water content of feces, and the water content of feces (%)=(wet feces mass−dry feces mass)/wet feces mass×100%.
The data required for measurement and observation in this experiment are recorded in the corresponding table. All data are statistically processed by Microsoft Excel, and expressed as “mean standard error”. The data of each group are statistically analyzed by SPSS software package.

Data set [1] in a line: Metabolic stability in liver microsomes, human. The note with it: human, microsomes, pH 7.4. As to the method:
(§2) The solution B is slowly dropped into solution A, and the pH is adjusted to 7.40±0.05.
(§3) • Control drug: 4 μL Verapamil solution (10 mM) is added with 96 μL DMSO and diluted to 400 μM; • Compound to be tested: 4 μL compound to be tested (10 mM) is added with 96 μL normal saline and diluted to 400 μM.
(§4) The microsomes are stored in the refrigerator at −80° C., thawed at room temperature after being taken out, and mixed gently.
(§5) […] PBS (100 mm, pH=7.4) solution is added to the negative sample. The solution is put into water bath at 37° C. and pre-incubated for 10 minutes; • B) After incubation, 2 μL reference drug or compound to be tested (400 μM) are added into each well to start the reaction.

The nature of data set [2]: Metabolic stability in liver microsomes, rat. Conditions: rat, microsomes, pH 7.4. The protocol: as §2, §3, §4, §5
Data set [3] is described as follows: Metabolic stability in liver microsomes, mouse. Conditions: mouse, microsomes, pH 7.4. The protocol: as §2, §3, §4, §5
The target in the next data set is CYP 3A4 (Homo sapiens, UniProt P08684). Put plainly: biochemical. Conditions: CYP 3A4 IC50, human liver microsomes.
Another data set concerns the target CYP 2C9 (Homo sapiens, UniProt P11712). Put plainly: Inhibition of cytochrome P450 enzyme in human liver microsomes, CYP 2C9.

With `[2H]C([2H])([2H])N(C[C@@H]1CN(C(=O)Cc2cc(F)c(F)cc2F)CC[C@@]1(O)c1cccc(OC)c1)C([2H])([2H])[2H]` [II-9hydrochloride], the δOR binding rate at δOR came to 12.8 ± 0.8%. At κOR, this compound came in with a κOR binding rate of 17.2 ± 3.5%. In addition, the “Number of defecating animals” value in the data set with ICR mice (1 mg/kg) is reported as 8; with ICR mice (5 mg/kg), 2. Besides, the results for the Defecation time in the data set with ICR mice (1 mg/kg) and with ICR mice (5 mg/kg) were 182.6 ± 10.2 min and 242.9 ± 11.9 min, respectively. Moreover, the results for the “water content of feces” value with ICR mice (1 mg/kg) and with ICR mice (5 mg/kg) were 43.2 ± 2.5% and 37.9 ± 8.9%, respectively. Besides, the Fecal weight in the data set with ICR mice (1 mg/kg) is recorded as 0.3399 ± 0.0983 g; in the data set with ICR mice (5 mg/kg) it was 0.0489 ± 0.0073 g. The half-life at 2 μM came out at 5.32 min in data set [1], 5.55 min in data set [2] and 5.03 min in data set [3]. For the same compound, the microsomal CLint at 2 μM was determined as 673 µL/min/mg in data set [1], 681 µL/min/mg in data set [2] and 612 µL/min/mg in data set [3]. In addition, the IC50 is 48 µM at CYP 3A4 (substrate midazolam), 47 µM on CYP 3A4 (substrate testosterone) and more than 50 µM on CYP 2C9.
`[2H]C([2H])([2H])Oc1cccc([C@]2(O)CCN(C(=O)Cc3cc(F)c(F)cc3F)C[C@H]2CN(C([2H])([2H])[2H])C([2H])([2H])[2H])c1` [II-11hydrochloride] showed a δOR binding rate at δOR of 10.4 ± 1.1%. Moreover, the κOR binding rate at κOR is listed as 16.4 ± 2.3%. The “Number of defecating animals” value with ICR mice (1 mg/kg) is on record as 8; in the data set with ICR mice (5 mg/kg), 2. Besides, the figures for the Defecation time in the data set with ICR mice (1 mg/kg) and with ICR mice (5 mg/kg) were 190.3 ± 12.7 min and 265.9 ± 13.1 min, respectively. Besides, the entries for the “water content of feces” value in the data set on ICR mice (1 mg/kg) and with ICR mice (5 mg/kg) were 43.5 ± 2.8% and 38.2 ± 9.5%, respectively. Moreover, the Fecal weight in the data set with ICR mice (1 mg/kg) was 0.3402 ± 0.0828 g; with ICR mice (5 mg/kg), 0.0496 ± 0.0067 g. The half-life at 2 μM in data set [1] is 6.18 min; in data set [2], 6.46 min; in data set [3] it was 6.01 min. Also, the intrinsic clearance (microsomal CLint) at 2 μM in data set [1] is 711 µL/min/mg; in data set [2], 747 µL/min/mg; in data set [3], 700 µL/min/mg. Further, the IC50 against CYP 3A4 (substrate midazolam), at CYP 3A4 (substrate testosterone) and at CYP 2C9 was more than 50 µM each time.
